Laboratory results taken from PubChem BioAssay (NCI).
“And” between values parts separate entries of the source, which are not always exact repeats. Identical values can stand only once.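 Five concentrations, 48 hours, 96-well plates. GI50 = concentration required for 50% inhibition of growth. TGI denotes the concentration required for complete inhibition of growth.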

Experiments:
Assay in all cases: NCI-60 cell line screen, 48 h
[1] = system: SF-295 CNS
[2] = system: KM12 colon
[3] = system: EKVX NSCLC
[4] = system: U251 CNS
[5] = system: NCI-H522 lung
[6] = system: HCT-15 colon
[7] = system: SNB-75 CNS
[8] = system: MALME-3M melanoma

Compound	GI50 [1]	TGI [1]	GI50 [2]	TGI [2]	GI50 [3]	TGI [3]	GI50 [4]	TGI [4]	GI50 [5]	TGI [5]	GI50 [6]	TGI [6]	GI50 [7]	TGI [7]	GI50 [8]	TGI [8]
COc1cc(C(=O)N2CCN(c3ncnc4ccccc34)CC2)c(N)cc1OCc1ccccc1	12.8 µM	27.8 µM	14.9 µM	38.4 µM	22.5 µM	48.5 µM	11.3 µM	23.3 µM	5.71 µM	26.8 µM	16.7 µM	31 µM	7.63 µM	20.8 µM	13.7 µM	30.4 µM
Nc1nnnn1CCO		> 100 µM		> 100 µM		> 100 µM		> 100 µM		> 100 µM		> 100 µM		> 100 µM		> 100 µM
O=C(Nc1ccncc1)C(=O)c1cn(S(=O)(=O)c2ccc(Cl)cc2)c2ccccc12	1.68 µM	14.9 µM	0.567 µM	> 100 µM	2.62 µM	> 100 µM	1.06 µM	17.8 µM	0.279 µM	1.08 µM	0.45 µM	> 100 µM	1.23 µM	10.9 µM	0.894 µM	> 100 µM
O=Nc1ccc(NO)c2ccccc12	14.8 µM	28.6 µM	15.6 µM	30.4 µM			13.1 µM	26.1 µM	13.2 µM	27 µM	14.9 µM	31.7 µM	18.3 µM	32.4 µM	5.85 µM	19 µM
C/C1=C/C(=O)O[C@@H]2C[C@@H](CC[C@H](C)/C=C\C=C\CC1)O[C@@](O)([C@@H]1CSC(=O)N1)C2		> 8.93 µM		> 10 µM		> 5.52 µM		> 10 µM				> 10 µM		0.332 µM		> 10 µM
C[n+]1c2cc(N)ccc2cc2ccc(N)cc21		5.63 µM [middle of 4 runs]			0.263 µM and 0.831 µM and 0.261 µM	2.31 µM [middle of 4 runs]	733 nM [middle of 4 runs]	4.22 µM [middle of 4 runs]	917 nM [middle of 4 runs]	3.68 µM [middle of 4 runs]	2.41 µM [middle of 4 runs]	15.2 µM [middle of 4 runs]	1.55 µM [middle of 4 runs]	4.05 µM [middle of 4 runs]	763 nM [middle of 4 runs]	2.86 µM [middle of 4 runs]
[N-]=[N+]=NCCCCCC(=O)OC(C(=O)c1ccccc1)c1cccc(OCC(=O)NCCOCCOCCNC(=O)CCCC[C@@H]2SC[C@@H]3NC(=O)N[C@@H]32)c1 (some centres undefined)	> 100 µM	> 100 µM	> 100 µM	> 100 µM	> 100 µM	> 100 µM	> 100 µM	> 100 µM	> 100 µM	> 100 µM	> 100 µM	> 100 µM	95.8 µM	> 100 µM	> 100 µM	> 100 µM
NCCOCCOCCNc1nc(-c2ccccc2)nc(N2CCN(c3ccccn3)CC2)n1	17.5 µM	36 µM	16.1 µM	31 µM			12.1 µM	26.3 µM			13.1 µM	27.9 µM	14.3 µM	30.2 µM	11.3 µM	26.2 µM
COc1cc(NCCCN=C(N)NC(N)=NC(C)C)c2ncccc2c1	79.3 µM	> 100 µM	0.633 µM	11.2 µM	4.73 µM	22 µM	6.41 µM	> 45.1 µM	2.72 µM	9.61 µM	> 100 µM	> 100 µM	4.81 µM	28.5 µM	0.813 µM	4.1 µM
Cc1nc(-c2cn3c(n2)-c2ccc(-c4cnn(C(C)(C)C(N)=O)c4)cc2OCC3)n(C(C)C)n1	0.894 µM and 0.838 µM	16.7 µM and > 10 µM	3.48 µM and 3 µM	17.2 µM and > 10 µM	1.48 µM	> 10 µM	0.68 µM and 1.51 µM	25.4 µM and > 10 µM	5.73 µM and 6.01 µM	26.7 µM and > 10 µM	0.219 µM and 0.314 µM	39.9 µM and > 10 µM	0.0204 µM and 0.0142 µM	2.63 µM and > 2.63 µM		3.12 µM and > 10 µM
COc1ccc2ccccc2c1C1NC(=O)c2ccccc2N1 (centres undefined)				19.9 µM		> 100 µM		8.78 µM		> 25.6 µM		6.21 µM				> 100 µM
Clc1ccc(-c2c3c(nn2-c2ccccn2)CCc2ccccc2-3)cc1Cl	95.2 µM	> 100 µM	> 100 µM	> 100 µM	> 100 µM	> 100 µM	> 100 µM	> 100 µM	> 100 µM	> 100 µM	> 100 µM	> 100 µM	67.6 µM	> 100 µM	47.9 µM	> 100 µM
CS(=O)(=O)CCc1cccc(C(=O)c2cnn(-c3ccc(F)cc3)c2N)c1	> 25 µM	> 25 µM	> 25 µM	> 25 µM			> 25 µM	> 25 µM	> 25 µM	> 25 µM	> 25 µM	> 25 µM	> 25 µM	> 25 µM	> 25 µM	> 25 µM
O=C(Nc1ccc(Cl)c(Cl)c1)Nc1c(Oc2ccc(Cl)c(Cl)c2)ccc(Cl)c1S(=O)(=O)O			0.927 µM	> 100 µM			3.16 µM	> 100 µM					1.51 µM	4.53 µM		
COc1cc(-c2cc(O)c(-c3ccc4ccccc4n3)c(=O)[nH]2)cc(OC)c1OC		> 67.7 µM		> 100 µM		> 100 µM		> 48.2 µM		40.8 µM		> 100 µM		46.1 µM		> 54.8 µM
Nc1nc2c(ncn2C2C=CC(CO)C2)c(=O)[nH]1 (centres undefined)		> 100 µM		> 100 µM		> 100 µM		> 100 µM		> 100 µM		> 100 µM		> 100 µM		> 100 µM
Cc1nnc(-c2cccc(-c3ccc(C(=O)NCC4CC4)cc3)c2)o1	> 25 µM	> 25 µM	15.5 µM	> 25 µM	> 25 µM	> 25 µM	> 25 µM	> 25 µM	> 25 µM	> 25 µM	> 25 µM	> 25 µM	> 25 µM	> 25 µM	> 25 µM	> 25 µM

Compound	GI50 [1]	TGI [1]	GI50 [2]	TGI [2]	GI50 [3]	TGI [3]	GI50 [4]	TGI [4]	GI50 [5]	TGI [5]	GI50 [6]	TGI [6]	GI50 [7]	TGI [7]	GI50 [8]	TGI [8]
O=c1cc(-c2cccc3c2Sc2ccccc2S3)oc(N2CCOCC2)c1	11.5 µM	24.9 µM	8.04 µM	21.4 µM	10.2 µM	25 µM	8.94 µM	21.7 µM	8.01 µM	22.6 µM	8.68 µM	24.3 µM	4.97 µM	19.9 µM	8.81 µM	24.4 µM
O=C(NCCCO)c1cc(Cl)ccc1O	1.36 µM	6.01 µM	2.43 µM	12.9 µM	2 µM	18.1 µM	1.11 µM	12.1 µM	1.12 µM	4.77 µM	7.02 µM	21.6 µM	2.44 µM	15.1 µM	1.85 µM	8.33 µM
Oc1ccc(-c2nc3ccccc3s2)cc1CN(Cc1ccccn1)Cc1ccccn1	0.468 µM	6.87 µM	0.909 µM	15.6 µM	1.2 µM	14.9 µM	0.76 µM	17.6 µM	2.83 µM	14.2 µM	0.149 µM	14.3 µM	1.22 µM	15.3 µM	1.8 µM	7.77 µM
CCC(=C/[C@H](C)C/C=C/C(C)=C/[C@@H](C)C(=O)[C@@H](C)[C@H](O)[C@@H](C)CC)/C=C/[C@@H]1OC(=O)C=C[C@H]1C	< 0.01 µM		< 0.01 µM	0.126 µM	< 0.01 µM	13 µM	< 0.01 µM		< 0.01 µM	< 0.01 µM	< 0.01 µM	0.396 µM	< 0.01 µM	< 0.0465 µM	< 0.01 µM	0.0157 µM
COc1ccc2c(=O)cc(C(Cl)(Cl)Cl)oc2c1	1.27 µM	13 µM	0.32 µM	12.5 µM			1.14 µM	11.1 µM	0.228 µM	0.683 µM	0.24 µM	14.2 µM	0.327 µM	15.1 µM	5.71 µM	35.6 µM
CCN(CC)CCCNCc1cc(-c2ccccc2)nc2ccccc12	16.5 µM	44.7 µM	15 µM	> 100 µM	89.2 µM	> 100 µM	4.16 µM	19.4 µM	15.9 µM	52.3 µM	3.24 µM	45.8 µM	12.3 µM	35.8 µM	7.2 µM	24.3 µM
CC(=O)c1c(C)[nH]c(-c2nc3ccc(N4CCN(C)CC4)cc3[nH]2)c1-c1ccc(N(C)C)cc1	1.55 µM	14.8 µM	1.34 µM	20.2 µM	4.81 µM	> 100 µM	2.11 µM	> 65.5 µM	0.606 µM	16.6 µM	0.478 µM	14.1 µM	0.0456 µM	1.74 µM	0.812 µM	5.1 µM
CO/N=C(\C)c1ccc(Nc2cc(-c3ccccc3)nc3ccc(OC)cc23)cc1	2.02 µM	4.82 µM			3.27 µM	8.53 µM	2.05 µM	4.79 µM	4.4 µM	> 100 µM	3.17 µM	11 µM	23 µM	> 100 µM	1.78 µM	4.85 µM
COc1cc(C2SCC(=O)N2c2ncc(C)s2)cc(OC)c1OC (centres undefined)	9.23 µM	> 50 µM	18.7 µM	> 50 µM	43.9 µM	> 50 µM	18.1 µM	> 50 µM	> 50 µM	> 50 µM	16.3 µM	> 50 µM	14.4 µM	> 50 µM		
CN(C)CCNC(=O)c1cccc(N(C)C(=O)c2ccccc2)c1[N+](=O)[O-]		> 100 µM		> 100 µM				> 100 µM		> 100 µM		> 100 µM		> 100 µM		> 100 µM
O=c1[nH]c(=S)[nH]c2c1CN(CCCN1CCOCC1)CN2		> 100 µM		95.9 µM		> 100 µM		> 100 µM		52.3 µM		> 100 µM				42.3 µM
CCN(CC)CC(O)CNc1c2ccc([N+](=O)[O-])cc2nc2cc(OC)c(OC)cc12 (centres undefined)	0.41 µM	2.06 µM	0.343 µM	1.37 µM	0.336 µM	1.85 µM			0.267 µM	0.823 µM	0.854 µM	3.6 µM	0.488 µM	1.88 µM	0.249 µM	0.573 µM
COc1c2ccoc2c(OC)c2oc(=O)ccc12		> 100 µM		> 100 µM		> 100 µM		> 100 µM		> 100 µM		> 100 µM		63.6 µM		
CC(C)(C)c1cc(-n2c(-c3ccc(Cl)cc3)nc3cc(C(=O)Nc4ccc(Cl)cc4)ccc32)n[nH]1	2.93 µM	> 100 µM	2.76 µM	> 100 µM			6.63 µM	> 100 µM	3.9 µM	94.8 µM			7.08 µM	26.4 µM	5.29 µM	> 100 µM
CC(=O)OC(C)(C)/C(C)=C/C(=O)O[C@H]1C(=O)O[C@@H]2C[C@H]3[C@H](C)C(=O)C(O[C@@H]4O[C@H](CO)[C@@H](O)[C@H](O)[C@H]4O)=C[C@]3(C)[C@H]3[C@@H](O)[C@H](O)[C@@]4(C(=O)O)OC[C@]32[C@@H]14			> 100 µM	> 100 µM	> 100 µM	> 100 µM		> 100 µM	18.7 µM	49.5 µM	> 100 µM	> 100 µM	> 100 µM	> 100 µM	55.9 µM	> 100 µM
c1ccc(CN2COc3c(ccc4c3OCN(Cc3ccccc3)C4)C2)cc1	0.554 µM	> 100 µM	0.621 µM	> 100 µM			0.382 µM	> 100 µM	2.05 µM	> 100 µM	0.0906 µM	> 100 µM	2.09 µM	> 100 µM	3.06 µM	> 100 µM
CC1CCCC(C(O)CC2CC(=O)NC(=O)C2)C1O (centres undefined)		> 100 µM		> 100 µM		> 100 µM		> 100 µM				> 100 µM		> 100 µM		> 100 µM
